Biological target: Aβ42 (Homo sapiens, UniProt P05067)
Experiment: Th-T (thioflavin-T) assay of Aβ42 aggregation
Type: biochemical
Details: for Th-T assay plate reading, mean of three wells (Supplementary Fig. 47): source data, Ab alone and No Ab as controls

Chain of Aβ42 (P05067 672-713): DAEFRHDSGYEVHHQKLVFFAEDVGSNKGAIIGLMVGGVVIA

Th-T fluorescence, mean of three wells (Aβ42 aggregation time course, reading M117): 3.827
Th-T fluorescence, mean of three wells (Aβ42 aggregation time course, reading M118): 3.826
Th-T fluorescence, mean of three wells (Aβ42 aggregation time course, reading M119): 3.802
Th-T fluorescence, mean of three wells (Aβ42 aggregation time course, reading M120): 3.809
Th-T fluorescence, mean of three wells (Aβ42 aggregation time course, reading M121): 3.768
Th-T fluorescence, mean of three wells (Aβ42 aggregation time course, reading M122): 3.8239
Th-T fluorescence, mean of three wells (Aβ42 aggregation time course, reading M123): 3.779
Th-T fluorescence, mean of three wells (Aβ42 aggregation time course, reading M124): 3.775
Th-T fluorescence, mean of three wells (Aβ42 aggregation time course, reading M125): 3.791
Th-T fluorescence, mean of three wells (Aβ42 aggregation time course, reading M126): 3.753
Th-T fluorescence, mean of three wells (Aβ42 aggregation time course, reading M127): 3.782
Th-T fluorescence, mean of three wells (Aβ42 aggregation time course, reading M128): 3.792
Th-T fluorescence, mean of three wells (Aβ42 aggregation time course, reading M129): 3.762
Th-T fluorescence, mean of three wells (Aβ42 aggregation time course, reading M130): 3.763
Th-T fluorescence, mean of three wells (Aβ42 aggregation time course, reading M131): 3.755
Th-T fluorescence, mean of three wells (Aβ42 aggregation time course, reading M132): 3.815
Th-T fluorescence, mean of three wells (Aβ42 aggregation time course, reading M133): 3.777
Th-T fluorescence, mean of three wells (Aβ42 aggregation time course, reading M134): 3.764
Th-T fluorescence, mean of three wells (Aβ42 aggregation time course, reading M135): 3.756
Th-T fluorescence, mean of three wells (Aβ42 aggregation time course, reading M136): 3.746
Th-T fluorescence, mean of three wells (Supplementary Fig. 47, reading M137): 3.774
Th-T fluorescence, mean of three wells (Supplementary Fig. 47, reading M138): 3.771
Th-T fluorescence, mean of three wells (Supplementary Fig. 47, reading M139): 3.713
Th-T fluorescence, mean of three wells (Supplementary Fig. 47, reading M140): 3.758
Th-T fluorescence, mean of three wells (Supplementary Fig. 47, reading M141): 3.7322
Th-T fluorescence, mean of three wells (Supplementary Fig. 47, reading M142): 3.721
Th-T fluorescence, mean of three wells (Supplementary Fig. 47, reading M143): 3.695
Th-T fluorescence, mean of three wells (Supplementary Fig. 47, reading M144): 3.702
Th-T fluorescence, mean of three wells (Supplementary Fig. 47, reading M145): 3.716
Th-T fluorescence, mean of three wells (Supplementary Fig. 47 source data, measurement M37 of time course): 3.803
Th-T fluorescence, mean of three wells (Supplementary Fig. 47 source data, measurement M38 of time course): 3.788
Th-T fluorescence, mean of three wells (Supplementary Fig. 47 source data, measurement M39 of time course): 3.823
Th-T fluorescence, mean of three wells (Supplementary Fig. 47 source data, measurement M40 of time course): 3.844
Th-T fluorescence, mean of three wells (Supplementary Fig. 47 source data, measurement M41 of time course): 3.831
Th-T fluorescence, mean of three wells (Supplementary Fig. 47 source data, measurement M42 of time course): 3.8461
Th-T fluorescence, mean of three wells (Supplementary Fig. 47 source data, measurement M43 of time course): 3.853
Th-T fluorescence, mean of three wells (Supplementary Fig. 47 source data, measurement M44 of time course): 3.884
Th-T fluorescence, mean of three wells (Supplementary Fig. 47 source data, measurement M45 of time course): 3.893
Th-T fluorescence, mean of three wells (Supplementary Fig. 47 source data, measurement M46 of time course): 3.909
Th-T fluorescence, mean of three wells (Supplementary Fig. 47 source data, measurement M47 of time course): 3.912
Th-T fluorescence, mean of three wells (Supplementary Fig. 47 source data, measurement M48 of time course): 3.912
Th-T fluorescence, mean of three wells (Supplementary Fig. 47 source data, measurement M49 of time course): 3.934
Th-T fluorescence, mean of three wells (Supplementary Fig. 47 source data, measurement M50 of time course): 3.962
Th-T fluorescence, mean of three wells (Supplementary Fig. 47 source data, measurement M51 of time course): 3.932
Th-T fluorescence, mean of three wells (Supplementary Fig. 47 source data, measurement M52 of time course): 3.964
Th-T fluorescence, mean of three wells (Supplementary Fig. 47 source data, measurement M53 of time course): 3.941
Th-T fluorescence, mean of three wells (Supplementary Fig. 47 source data, measurement M54 of time course): 3.968
Th-T fluorescence, mean of three wells (Supplementary Fig. 47 source data, measurement M55 of time course): 3.9543
Th-T fluorescence, mean of three wells (Supplementary Fig. 47 source data, measurement M56 of time course): 4.004
Th-T assay plate reading, mean of three wells (Supplementary Fig. 47) (measurement M1): 0.2027
Th-T assay plate reading, mean of three wells (Supplementary Fig. 47) (measurement M2): 0.2169
Th-T assay plate reading, mean of three wells (Supplementary Fig. 47) (measurement M3): 0.2567
Th-T assay plate reading, mean of three wells (Supplementary Fig. 47) (measurement M4): 0.2868
Th-T assay plate reading, mean of three wells (Supplementary Fig. 47) (measurement M5): 0.363
Th-T assay plate reading, mean of three wells (Supplementary Fig. 47) (measurement M6): 0.3665
Th-T assay plate reading, mean of three wells (Supplementary Fig. 47) (measurement M7): 0.43
Th-T assay plate reading, mean of three wells (Supplementary Fig. 47) (measurement M8): 0.4699
Th-T assay plate reading, mean of three wells (Supplementary Fig. 47) (measurement M9): 0.5243
Th-T assay plate reading, mean of three wells (Supplementary Fig. 47) (measurement M10): 0.5956
Th-T assay plate reading, mean of three wells (Supplementary Fig. 47) (measurement M11): 0.7582
Th-T assay plate reading, mean of three wells (Supplementary Fig. 47) (measurement M12): 1.169
Th-T assay plate reading, mean of three wells (Supplementary Fig. 47) (measurement M13): 1.941
Th-T assay plate reading, mean of three wells (Supplementary Fig. 47) (measurement M14): 2.67
Th-T assay plate reading, mean of three wells (Supplementary Fig. 47) (measurement M15): 3.082
Th-T assay plate reading, mean of three wells (Supplementary Fig. 47) (measurement M16): 3.287
Th-T fluorescence, mean of three wells (reading M17, Supplementary Fig. 47 source data): 3.39
Th-T fluorescence, mean of three wells (reading M18, Supplementary Fig. 47 source data): 3.467
Th-T fluorescence, mean of three wells (reading M19, Supplementary Fig. 47 source data): 3.485
Th-T fluorescence, mean of three wells (reading M20, Supplementary Fig. 47 source data): 3.511
Th-T fluorescence, mean of three wells (reading M21, Supplementary Fig. 47 source data): 3.555
Th-T fluorescence, mean of three wells (reading M22, Supplementary Fig. 47 source data): 3.568
Th-T fluorescence, mean of three wells (reading M23, Supplementary Fig. 47 source data): 3.6
Th-T fluorescence, mean of three wells (reading M24, Supplementary Fig. 47 source data): 3.61
Th-T fluorescence, mean of three wells (reading M25, Supplementary Fig. 47 source data): 3.637
Th-T fluorescence, mean of three wells (reading M26, Supplementary Fig. 47 source data): 3.637
Th-T fluorescence, mean of three wells (reading M27, Supplementary Fig. 47 source data): 3.663
Th-T fluorescence, mean of three wells (reading M28, Supplementary Fig. 47 source data): 3.673
Th-T fluorescence, mean of three wells (reading M29, Supplementary Fig. 47 source data): 3.697
Th-T fluorescence, mean of three wells (reading M30, Supplementary Fig. 47 source data): 3.695
Th-T fluorescence, mean of three wells (reading M31, Supplementary Fig. 47 source data): 3.715
Th-T fluorescence, mean of three wells (reading M32, Supplementary Fig. 47 source data): 3.7502
Th-T fluorescence, mean of three wells (reading M33, Supplementary Fig. 47 source data): 3.748
Th-T fluorescence, mean of three wells (reading M34, Supplementary Fig. 47 source data): 3.745
Th-T fluorescence, mean of three wells (reading M35, Supplementary Fig. 47 source data): 3.779
Th-T fluorescence, mean of three wells (reading M36, Supplementary Fig. 47 source data): 3.8
Th-T fluorescence, mean of three wells (time course, reading M57): 3.991
Th-T fluorescence, mean of three wells (time course, reading M58): 4.013
Th-T fluorescence, mean of three wells (time course, reading M59): 3.958
Th-T fluorescence, mean of three wells (time course, reading M60): 3.988
Th-T fluorescence, mean of three wells (time course, reading M61): 3.973
Th-T fluorescence, mean of three wells (time course, reading M62): 3.97
Th-T fluorescence, mean of three wells (time course, reading M63): 3.951
Th-T fluorescence, mean of three wells (time course, reading M64): 3.976
Th-T fluorescence, mean of three wells (time course, reading M65): 3.959
Th-T fluorescence, mean of three wells (time course, reading M66): 3.962
Th-T fluorescence, mean of three wells (time course, reading M67): 3.958
Th-T fluorescence, mean of three wells (time-course reading M97, Supplementary Fig. 47 source data): 3.893
Th-T fluorescence, mean of three wells (time-course reading M98, Supplementary Fig. 47 source data): 3.89
Th-T fluorescence, mean of three wells (time-course reading M99, Supplementary Fig. 47 source data): 3.924
Th-T fluorescence, mean of three wells (time-course reading M100, Supplementary Fig. 47 source data): 3.864
Th-T fluorescence, mean of three wells (time-course reading M101, Supplementary Fig. 47 source data): 3.863
Th-T fluorescence, mean of three wells (time-course reading M102, Supplementary Fig. 47 source data): 3.862
Th-T fluorescence, mean of three wells (time-course reading M103, Supplementary Fig. 47 source data): 3.898
Th-T fluorescence, mean of three wells (time-course reading M104, Supplementary Fig. 47 source data): 3.892
Th-T fluorescence, mean of three wells (time-course reading M105, Supplementary Fig. 47 source data): 3.876
Th-T fluorescence, mean of three wells (time-course reading M106, Supplementary Fig. 47 source data): 3.8607
Th-T fluorescence, mean of three wells (time-course reading M107, Supplementary Fig. 47 source data): 3.854
Th-T fluorescence, mean of three wells (time-course reading M108, Supplementary Fig. 47 source data): 3.8485
Th-T fluorescence, mean of three wells (time-course reading M109, Supplementary Fig. 47 source data): 3.821
Th-T fluorescence, mean of three wells (time-course reading M110, Supplementary Fig. 47 source data): 3.872
Th-T fluorescence, mean of three wells (time-course reading M111, Supplementary Fig. 47 source data): 3.799
Th-T fluorescence, mean of three wells (time-course reading M112, Supplementary Fig. 47 source data): 3.848
Th-T fluorescence, mean of three wells (time-course reading M113, Supplementary Fig. 47 source data): 3.819
Th-T fluorescence, mean of three wells (time-course reading M114, Supplementary Fig. 47 source data): 3.862
Th-T fluorescence, mean of three wells (time-course reading M115, Supplementary Fig. 47 source data): 3.831
Th-T fluorescence, mean of three wells (time-course reading M116, Supplementary Fig. 47 source data): 3.8198
Structure (SMILES): C=C1CC[C@H]2[C@]3(C)C[C@H](C=C(C)C)O[C@H]3CC[C@]2(C)[C@@H]1Cc1c(OC)oc(CO)c(C)c1=O [Compound 18]
